Laboratory results published in US7063946B2, “Methods, reagents, kits and apparatus for protein function analysis” (Meso Scale Technologies, LLC., priority 2001, dated 2006).
pIC50: −log10 of the molar value.

Key:
Kdr [1] = biological target: T1, Kdr (Mus musculus, UniProt P35918); experiment: Kinase inhibitor profiling, autophosphorylation; type: biochemical
T1 construct: specificity data for proteins generated from a library of eighteen full-length clones; biotin on random lysines (biotin-Lys-tRNA); host or cells: rabbit reticulocyte lysate, coupled transcription/translation (TnT, Promega)
Procedure: Proteins were produced from DNA plasmids of Mock Luciferase, Promega, tyrosine kinase clone Spleen Tyrosine kinase (SYK, IMAGE ID# 3870426) and Eph receptor-A7 (EphA7, IMAGE ID# 3991628) (Incyte Genomics, CA) and immobilized on streptavidin or avidin coated NPT-IPR plates as described in the Example 7. To promote autophosphorylation in these immobilized and purified proteins, Mn++ ions were added in a 50 μl reaction containing 5 mM MgCl2, 5 mM MnCl2, 100 μM ATP, 25 mM Tris-HCl buffer pH 7.4, 0.05 mM Na3VO4, 0.004% TritonX-100, 2 mM DTT and EDTA-free protease inhibitor (Roche Molecular Biochemicals). This mixture was incubated with shaking at room temperature overnight to allow autophosphorylation. Following this incubation, wells were washed 2 times with TT-buffer and 2 times with water. Following this step, 50 ng Sulfo-TAG labeled anti-phosphotyrosine in buffer containing 25 mM Tris-HCl buffer pH 7.4, 5 mM MgCl2, 0.05 mM Na3VO4, 0.004% TritonX-100, 2 mM DTT and 0.05% IgG in a final volume of 50 μl was added followed by incubation at room temperature for 45 min. The unbound reagents were removed by one time washing with water, and the TAG label was detected in presence of 150 μl IPR assay buffer (0.4 mM Gly—Gly buffer, pH 7.8, 1 mM EDTA, 0.1 M TPA). The ECL signals were measured using an imaging plate reader.
(§1) The unbound components of the translation reaction (including any endogenous kinases) were removed by 3 washes with TT-buffer (25 mM Tris-HCl buffer pH 7.4 and 0.004% Triton), two five minutes washes with high-salt wash buffer (25 mM Tris-HCl buffer pH 7.4, 0.004% Triton, 1M NaCl and 5 mM DTT) and 3 washes with TT-buffer. […] The mixture was incubated at room temperature for 10 mm before starting the kinase reaction by adding 25 μl of 200 μM ATP in buffer A. This mixture was incubated with intermittent shaking at room temperature for 2 hours to overnight to allow (a) phosphorylation of the pEY substrate and (b) autophosphorylation of the immobilized kinases. Autophosphorylation and phosphorylation of the pEY was measured as described in Examples 7 and 8.
(§2) The ECL signal in control wells produced by tyrosine kinases was compared to the wells containing inhibitor compounds.

Kdr [2] = biological target: T1, Kdr; experiment: Kinase inhibitor profiling, pEY phosphorylation; type: biochemical
Procedure: Proteins were produced in an in vitro transcription and translation reaction. […] The unbound components of the reaction containing endogenous kinases were removed by three washes with TT-buffer (25 mM Tris-HCl buffer pH 7.4 and 0.004% Triton), two five minutes washings with high-salt wash buffer (25 mM Tris-HCl buffer pH 7.4, 0.004% Triton, 1M NaCl and 5 mM DTT) and 3 more washes with TT-buffer. To these immobilized and purified proteins a tyrosine kinase substrate, 5 nM pEY (poly Glu-Tyr, Sigma, MO), was added in a 50 μl reaction solution containing 5 mM MgCl2, 5 mM MnCl2, 100 μM ATP, 25 mM Tris-HCl buffer pH 7.4, 0.05 mM Na3VO4, 0.004% TritonX-100, 2 mM DTT and EDTA-free protease inhibitor (Roche Molecular Biochemicals). This mixture was incubated with shaking at room temperature overnight to allow phosphorylation of the pEY substrate by the immobilized kinases. Following this incubation, 45 μl of this mixture was transferred to a streptavidin or avidin-coated NPT IPR plate coated with biotinylated anti-phosphotyrosine antibody (PY20, Zymed labs, CA) followed by incubation for 30 minutes at room temperature to allow the binding of the phosphorylated pEY substrate to the PY20 coated NPT plate. Following this binding step, 50 ng Sulfo-TAG labeled anti-phosphotyrosine in buffer containing 25 mM Tris-HCl buffer pH 7.4, 5 mM MgCl2, 0.05 mM Na3VO4, 0.004% TritonX-100, 2 mM DTT and 0.05% IgG was added followed by incubation at room temperature for 30 mm. The unbound reagents were removed by one time washing with water, and the TAG label was detected in presence of 150 μl IPR assay buffer (0.4 mM Gly-Gly buffer, pH 7.8, 1 mM EDTA, 0.1 M TPA). The ECL signals were measured using an imaging plate reader.
as §1, §2

[3] = test system: tyrosine kinases reported to be the target of each inhibitor; details: read-out: reported IC50 concentration (1× concentration); for the kinase reported to be the target of the inhibitor; cited from earlier work

T1 sequence (P35918 20-1345): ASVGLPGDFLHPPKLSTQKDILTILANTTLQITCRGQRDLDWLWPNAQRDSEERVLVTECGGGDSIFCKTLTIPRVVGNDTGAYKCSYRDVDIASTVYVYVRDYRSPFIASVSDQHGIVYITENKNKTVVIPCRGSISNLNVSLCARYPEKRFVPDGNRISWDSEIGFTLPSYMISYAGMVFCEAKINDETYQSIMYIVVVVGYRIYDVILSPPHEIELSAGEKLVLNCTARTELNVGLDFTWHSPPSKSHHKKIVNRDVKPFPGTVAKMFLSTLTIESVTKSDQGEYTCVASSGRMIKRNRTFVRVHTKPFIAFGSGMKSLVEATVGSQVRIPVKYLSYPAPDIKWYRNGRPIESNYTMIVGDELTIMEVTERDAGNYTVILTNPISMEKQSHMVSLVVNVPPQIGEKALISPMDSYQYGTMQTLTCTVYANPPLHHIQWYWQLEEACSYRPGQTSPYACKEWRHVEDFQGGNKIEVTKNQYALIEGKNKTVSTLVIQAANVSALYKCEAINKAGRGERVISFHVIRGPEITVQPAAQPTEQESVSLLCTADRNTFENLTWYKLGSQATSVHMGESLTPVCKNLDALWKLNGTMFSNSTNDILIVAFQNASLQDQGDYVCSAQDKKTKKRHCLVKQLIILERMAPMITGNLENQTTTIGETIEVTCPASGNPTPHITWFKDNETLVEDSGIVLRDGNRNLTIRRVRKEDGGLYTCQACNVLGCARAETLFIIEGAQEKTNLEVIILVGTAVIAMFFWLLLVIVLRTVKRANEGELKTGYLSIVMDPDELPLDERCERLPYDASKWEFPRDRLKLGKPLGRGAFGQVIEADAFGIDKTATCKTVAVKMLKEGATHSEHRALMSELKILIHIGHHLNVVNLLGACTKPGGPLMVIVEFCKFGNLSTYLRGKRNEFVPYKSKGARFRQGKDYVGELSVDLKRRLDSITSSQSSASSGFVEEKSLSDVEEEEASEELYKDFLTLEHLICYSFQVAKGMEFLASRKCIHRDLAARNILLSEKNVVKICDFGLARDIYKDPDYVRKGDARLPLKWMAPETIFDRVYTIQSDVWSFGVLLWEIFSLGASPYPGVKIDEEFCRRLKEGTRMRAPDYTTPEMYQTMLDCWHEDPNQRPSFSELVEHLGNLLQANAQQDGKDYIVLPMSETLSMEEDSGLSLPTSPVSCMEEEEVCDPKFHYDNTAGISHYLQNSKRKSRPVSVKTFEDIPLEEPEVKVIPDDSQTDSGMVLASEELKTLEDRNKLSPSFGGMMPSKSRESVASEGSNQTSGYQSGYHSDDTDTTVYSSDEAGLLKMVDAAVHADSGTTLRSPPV

Row | Compound | Inhibition specificity towards Autophosphorylation at 10X IC50, Kdr (Kdr [1]) | Inhibition specificity towards pEY phosphorylation at 10X IC50, Kdr (Kdr [2]) | pIC50 [3]
1 | Cc1ccc(-c2nn(C(C)(C)C)c3ncnc(N)c23)cc1 [PP1] | L (low inhibition (“L”=between 50–75% of the activity remaining)) | M (medium inhibition (“M”=between 25 to 50% of the activity remaining)) | 6.22
2 | COc1c(C=O)c(O)cc2c1C(=O)c1ccccc1C2=O [Damnacanthal] | H (high inhibition (“H”=less than 25% of the activity remaining)) | H (high inhibition (“H”=less than 25% of the activity remaining)) | 6.21
3 | Cc1cc2ncc(-c3ccc(O)c(O)c3)nc2cc1C [AG-1433] | H (high inhibition (“H”=less than 25% of the activity remaining)) | H (high inhibition (“H”=less than 25% of the activity remaining)) | 5.30
4 | COc1cc2ncnc(Nc3ccc(O)cc3)c2cc1OC [WHI-P131] | M (medium inhibition (“M”=between 25 to 50% of the activity remaining)) | H (high inhibition (“H”=less than 25% of the activity remaining)) | 5.11
5 | CC(C)(C)c1cc(C=C(C#N)C#N)cc(Br)c1O [AG-1024] | – | M (medium inhibition (“M”=between 25 to 50% of the activity remaining)) | 4.74
6 | COc1cc2ncnc(Nc3ccc(Cl)cc3F)c2cc1OC [VEGFR inhibitor] | M (medium inhibition (“M”=between 25 to 50% of the activity remaining)) | H (high inhibition (“H”=less than 25% of the activity remaining)) | 5.70
7 | Erbstatin analog | L (low inhibition (“L”=between 50–75% of the activity remaining)) | – | 6.11
8 | COC(=O)c1ccc(NCc2cc(O)ccc2O)cc1 [AG-957] | L (low inhibition (“L”=between 50–75% of the activity remaining)) | – | 6.12
